The record followed here is US8541418B2, “Inhibitors of polo-like kinase” (Elan Pharmaceutical, Inc., priority 2009, dated 2013).

Like-named read-outs stand apart in the source and are kept apart here.

In assay [1] the target is T1, PLK2 (Homo sapiens, UniProt Q9NYY3). Description: Kinase panel screening at InVitrogen, PLK2. Conditions: 10 μM compound.
The target of assay [2] is T2, PLK1 (Homo sapiens, UniProt P53350). Description: PLK TR-FRET peptide assay, PLK1. It is filed as biochemical.
The target in assay [3] is PLK3 (Homo sapiens, UniProt Q9H4B4). Description: PLK TR-FRET peptide assay, PLK3. It is filed as biochemical.
Assay [4] concerns the target T1, PLK2. The assay is described as follows: PLK TR-FRET peptide assay, PLK2. It is filed as biochemical. Particulars: for IC50: PLK TR-FRET peptide assay, read-out: Plk2 IC50; for relative PLK2 activity of the enantiomers: compared with the opposite enantiomer.
Assay [5] addresses T2, PLK1. Description: Kinase panel screening at InVitrogen, PLK1. Conditions: 10 μM compound.
The mark [6] stands for this setting: GST-PLK3, 15 min reaction, read-out: Plk3 IC50.

T2 sequence (P53350 whole entry): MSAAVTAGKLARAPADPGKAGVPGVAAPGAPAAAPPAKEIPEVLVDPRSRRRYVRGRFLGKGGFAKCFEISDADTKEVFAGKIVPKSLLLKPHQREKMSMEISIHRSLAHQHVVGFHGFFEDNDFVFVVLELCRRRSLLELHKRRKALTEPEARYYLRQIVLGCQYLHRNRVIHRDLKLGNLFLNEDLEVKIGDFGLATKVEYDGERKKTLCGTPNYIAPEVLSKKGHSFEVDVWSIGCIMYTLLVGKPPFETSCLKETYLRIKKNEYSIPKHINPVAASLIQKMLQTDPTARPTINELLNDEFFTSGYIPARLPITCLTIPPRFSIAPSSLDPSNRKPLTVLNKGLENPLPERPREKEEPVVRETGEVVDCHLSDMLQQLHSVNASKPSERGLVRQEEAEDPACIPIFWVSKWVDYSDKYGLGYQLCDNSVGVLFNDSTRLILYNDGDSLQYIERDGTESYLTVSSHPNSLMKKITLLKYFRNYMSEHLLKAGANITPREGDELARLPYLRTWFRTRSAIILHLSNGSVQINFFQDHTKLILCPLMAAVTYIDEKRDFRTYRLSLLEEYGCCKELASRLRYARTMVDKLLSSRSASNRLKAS
Sequence of PLK3 (Q9H4B4 whole entry): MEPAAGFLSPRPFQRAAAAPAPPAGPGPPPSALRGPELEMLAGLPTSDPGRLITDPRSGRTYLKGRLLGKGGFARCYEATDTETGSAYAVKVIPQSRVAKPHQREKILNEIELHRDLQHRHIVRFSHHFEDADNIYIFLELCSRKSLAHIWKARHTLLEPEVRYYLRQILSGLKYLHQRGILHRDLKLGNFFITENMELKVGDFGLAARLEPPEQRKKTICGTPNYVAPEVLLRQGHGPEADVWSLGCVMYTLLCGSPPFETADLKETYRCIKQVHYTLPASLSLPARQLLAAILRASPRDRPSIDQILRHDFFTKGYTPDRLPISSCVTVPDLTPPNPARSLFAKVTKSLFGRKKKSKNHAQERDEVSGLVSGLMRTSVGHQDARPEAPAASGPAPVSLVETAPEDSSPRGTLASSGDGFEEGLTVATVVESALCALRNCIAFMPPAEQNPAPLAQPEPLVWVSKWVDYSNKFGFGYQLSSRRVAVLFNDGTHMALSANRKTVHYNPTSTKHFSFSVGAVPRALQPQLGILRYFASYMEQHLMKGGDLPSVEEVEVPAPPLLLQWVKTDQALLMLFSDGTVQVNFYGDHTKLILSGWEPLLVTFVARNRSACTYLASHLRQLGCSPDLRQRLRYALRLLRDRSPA
T1 sequence (Q9NYY3 whole entry): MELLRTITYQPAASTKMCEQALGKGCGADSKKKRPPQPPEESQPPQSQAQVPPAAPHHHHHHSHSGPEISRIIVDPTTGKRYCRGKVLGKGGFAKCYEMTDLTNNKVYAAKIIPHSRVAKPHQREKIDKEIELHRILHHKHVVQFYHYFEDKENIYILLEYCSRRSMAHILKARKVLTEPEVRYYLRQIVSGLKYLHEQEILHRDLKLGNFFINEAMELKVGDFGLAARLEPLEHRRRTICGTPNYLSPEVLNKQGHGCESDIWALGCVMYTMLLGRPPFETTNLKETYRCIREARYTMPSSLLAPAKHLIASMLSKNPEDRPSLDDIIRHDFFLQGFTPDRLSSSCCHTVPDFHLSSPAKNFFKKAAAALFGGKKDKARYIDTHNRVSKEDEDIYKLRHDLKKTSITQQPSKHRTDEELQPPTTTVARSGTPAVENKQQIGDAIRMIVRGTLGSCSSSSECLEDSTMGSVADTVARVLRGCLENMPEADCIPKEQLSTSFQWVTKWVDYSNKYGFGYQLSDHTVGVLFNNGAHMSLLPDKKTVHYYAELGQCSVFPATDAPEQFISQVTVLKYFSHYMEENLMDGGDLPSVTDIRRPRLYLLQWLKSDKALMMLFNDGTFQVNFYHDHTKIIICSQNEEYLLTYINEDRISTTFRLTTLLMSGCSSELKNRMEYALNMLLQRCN

Regarding `CC[C@@H]1C(=O)N(C)c2cnc(-n3ccnc3-c3ccccc3)nc2N1C1CCCC1` [Example 26, (R)-8-cyclopentyl-7-ethyl-5-methyl-2-(2-phenyl-1H-imidazol-1-yl)-7,8-dihydropteridin-6(5H)-one], the “activity against PLK2 in kinase panel” value in assay [1] is given as “potent”.

For `CC[C@@H]1C(=O)N(C)c2cnc(-n3ccnc3-c3cscn3)nc2N1C1CCCC1` [Example 68, (R)-8-cyclopentyl-7-ethyl-5-methyl-2-(2-(thiazol-4-yl)-1H-imidazol-1-yl)-7,8-dihydropteridin-6(5H)-one], the IC50 in assay [2] (GST-PLK1, 60 min reaction) was below 1 µM; in assay [3] (setting [6]), below 1 µM; in assay [4] (GST-PLK2, 60 min reaction), below 1 µM. In assay [1], the “activity against PLK2 in kinase panel” value was “potent”. Also, the “activity against PLK1 in kinase panel” value in assay [5] is on record as “potent”.

Take `CCC12CCCCN1c1nc(-n3ccnc3)ncc1N(C)C2=O` (racemic) [Example 283, (+/−) 6a-ethyl-2-(1H-imidazol-1-yl)-5-methyl-7,8,9,10-tetrahydro-5H-pyrido[2,1-h]pteridin-6(6aH)-one]: the IC50 in assay [2] (GST-PLK1, 60 min reaction) was above 50 µM; in assay [3] (setting [6]) it was above 50 µM; in assay [4] (GST-PLK2, 60 min reaction), 10 to 50 µM.

As for `CC[C@@]12CCC(=O)N1c1nc(-n3ccnc3)ncc1N(C)C2=O` [Example 311, (S)-6a-ethyl-2-(1H-imidazol-1-yl)-5-methyl-7,8-dihydropyrrolo[2,1-h]pteridine-6,9(5H,6aH)-dione], the IC50 in assay [2] (GST-PLK1, 60 min reaction) is above 50 µM; in assay [3] (setting [6]), above 50 µM; in assay [4] (GST-PLK2, 60 min reaction), above 50 µM.

On to `CC[C@@H]1C(=O)N(C)c2cnc(-n3ccnc3-c3ccc(F)cc3F)nc2N1CCC(F)(F)F` [Example 277, (R)-2-(2-(2,4-difluorophenyl)-1H-imidazol-1-yl)-7-ethyl-5-methyl-8-(3,3,3-trifluoropropyl)-7,8-dihydropteridin-6(5H)-one], for which the IC50 in assay [2] (GST-PLK1, 60 min reaction) was 1 to 10 µM; in assay [3] (setting [6]), 1 to 10 µM; in assay [4] (GST-PLK2, 60 min reaction), below 1 µM.

For `CC[C@@]12CCCN1c1nc(-n3ccnc3-c3ccccc3)ncc1N(C)C2=O` [Example 76, (S)-6a-ethyl-5-methyl-2-(2-phenyl-1H-imidazol-1-yl)-6a,7,8,9-tetrahydropyrrolo[2,1-h]pteridin-6(5H)-one], the “activity against PLK2 in kinase panel” value in assay [1] is recorded as “potent”. In addition, in assay [5], the “activity against PLK1 in kinase panel” value is reported as “potent”.

For the compound `CC[C@@H]1C(=O)N(C)c2cnc(-c3ccncc3NC(=O)c3ccccc3)nc2N1C1CCCC1` [Example 102, (R)—N-(4-(8-cyclopentyl-7-ethyl-5-methyl-6-oxo-5,6,7,8-tetrahydropteridin-2-yl)pyridin-3-yl)benzamide], the IC50 in assay [2] (GST-PLK1, 60 min reaction) is 1 to 10 µM; in assay [3] (setting [6]), 1 to 10 µM; in assay [4] (GST-PLK2, 60 min reaction), below 1 µM.

Turning to `CN1C(=O)[C@H]2CCCN2c2nc(-c3ccncc3)ncc21` [Example 34, (R)-5-methyl-2-(pyridin-4-yl)-6a,7,8,9-tetrahydropyrrolo[2,1-h]pteridin-6(5H)-one], the IC50 in assay [2] (GST-PLK1, 60 min reaction) was above 50 µM; in assay [3] (setting [6]), above 50 µM; in assay [4] (GST-PLK2, 60 min reaction), above 50 µM.

Take `CC[C@@H]1C(=O)N(C)c2cnc(-n3ccnc3-c3cccc(F)c3F)nc2N1CCC(F)(F)F` [Example 254, (R)-2-(2-(2,3-difluorophenyl)-1H-imidazol-1-yl)-7-ethyl-5-methyl-8-(3,3,3-trifluoropropyl)-7,8-dihydropteridin-6(5H)-one]: the IC50 in assay [2] (GST-PLK1, 60 min reaction) is below 1 µM; in assay [3] (setting [6]), 1 to 10 µM; in assay [4] (GST-PLK2, 60 min reaction) it was below 1 µM.

`CC[C@@H]1C(=O)N(C)c2cnc(-c3ccncc3N)nc2N1C1CCCC1` [Example 91, (R)-2-(3-aminopyridin-4-yl)-8-cyclopentyl-7-ethyl-5-methyl-7,8-dihydropteridin-6(5H)-one]: the IC50 in assay [2] (GST-PLK1, 60 min reaction) is below 1 µM; in assay [3] (setting [6]), 1 to 10 µM; in assay [4] (GST-PLK2, 60 min reaction), below 1 µM.

On to `CC[C@@H]1C(=O)N(C)c2cnc(-c3ccncc3CNC(C)=O)nc2N1C(C)C` [Example 129, (R)—N-((4-(7-ethyl-8-isopropyl-5-methyl-6-oxo-5,6,7,8-tetrahydropteridin-2-yl)pyridin-3-yl)methyl)acetamide], for which the IC50 in assay [2] (GST-PLK1, 60 min reaction) is above 50 µM; in assay [3] (setting [6]) it was above 50 µM; in assay [4] (GST-PLK2, 60 min reaction), 10 to 50 µM.

Turning to `[2H]C([2H])([2H])N1C(=O)C(C([2H])([2H])C([2H])([2H])[2H])N(C([2H])(C([2H])([2H])[2H])C([2H])([2H])[2H])c2nc(-n3ccnc3-c3ccc(OC(F)(F)F)cc3)ncc21` (stereo not shown) [Example 170, 7-perdeuteroethyl-8-perdeuteroisopropyl-5-trideuteromethyl-2-(2-(4-(trifluoromethoxy)phenyl)-1H-imidazol-1-yl)-7,8-dihydropteridin-6(5H)-one], the IC50 is 10 to 50 µM in assay [2] (GST-PLK1, 60 min reaction); above 50 µM in assay [3] (setting [6]); below 1 µM in assay [4] (GST-PLK2, 60 min reaction).

As to `CN1C(=O)[C@@H](CC(F)(F)F)N(CCC(F)(F)F)c2nc(-n3ccnc3-c3ccc(F)cc3F)ncc21` [Example 293, (R)-2-(2-(2,4-difluorophenyl)-1H-imidazol-1-yl)-5-methyl-7-(2,2,2-trifluoroethyl)-8-(3,3,3-trifluoropropyl)-7,8-dihydropteridin-6(5H)-one], the IC50 was 1 to 10 µM in assay [2] (GST-PLK1, 60 min reaction); 10 to 50 µM in assay [3] (setting [6]); below 1 µM in assay [4] (GST-PLK2, 60 min reaction). For the same compound, in assay [4], the “relative PLK2 activity of the enantiomers” value is reported as “more active compound”.

For `CC[C@@H]1C(=O)N(C)c2cnc(-n3ccnc3-c3cc(Cl)cc(Cl)c3)nc2N1C1CCC1` [Example 198, (R)-8-cyclobutyl-2-(2-(3,5-dichlorophenyl)-1H-imidazol-1-yl)-7-ethyl-5-methyl-7,8-dihydropteridin-6(5H)-one], the IC50 in assay [2] (GST-PLK1, 60 min reaction) is 1 to 10 µM; in assay [3] (setting [6]), 1 to 10 µM; in assay [4] (GST-PLK2, 60 min reaction) it was below 1 µM.

With `CC[C@@H]1C(=O)N(C)c2cnc(-n3ccnc3-c3ccc(F)cn3)nc2N1C1CCCC1` [Example 271, (R)-8-cyclopentyl-7-ethyl-2-(2-(5-fluoropyridin-2-yl)-1H-imidazol-1-yl)-5-methyl-7,8-dihydropteridin-6(5H)-one], the IC50 in assay [2] (GST-PLK1, 60 min reaction) was below 1 µM; in assay [3] (setting [6]), 1 to 10 µM; in assay [4] (GST-PLK2, 60 min reaction) it was below 1 µM.

For `CC[C@H]1C(=O)N(C)c2cnc(-c3cn[nH]c3-c3nccs3)nc2N1c1ccc(F)c(F)c1` [Example 393, (S)-8-(3,4-difluorophenyl)-7-ethyl-5-methyl-2-(5-(thiazol-2-yl)-1H-pyrazol-4-yl)-7,8-dihydropteridin-6(5H)-one], the IC50 in assay [2] (GST-PLK1) is 10 to 50 µM; in assay [3] (GST-PLK3, read-out: Plk3 IC50), above 50 µM; in assay [4] (GST-PLK2) it was 1 to 10 µM.

Regarding `CC[C@@H]1C(=O)N(C)c2cnc(-c3ccncc3N)nc2N1C(C)C` [Example 93, (R)-2-(3-aminopyridin-4-yl)-7-ethyl-8-isopropyl-5-methyl-7,8-dihydropteridin-6(5H)-one], the IC50 in assay [2] (GST-PLK1, 60 min reaction) is 1 to 10 µM; in assay [3] (setting [6]), above 50 µM; in assay [4] (GST-PLK2, 60 min reaction), below 1 µM.

With `CC[C@@H]1C(=O)N(C)c2cnc(-c3cn[nH]c3-c3nccs3)nc2N1c1ccc(F)c(F)c1` [Example 395, (R)-8-(3,4-difluorophenyl)-7-ethyl-5-methyl-2-(5-(thiazol-2-yl)-1H-pyrazol-4-yl)-7,8-dihydropteridin-6(5H)-one], the IC50 in assay [2] (GST-PLK1) is below 1 µM; in assay [3] (GST-PLK3, read-out: Plk3 IC50), 1 to 10 µM; in assay [4] (GST-PLK2), below 1 µM. For the same compound, the “relative PLK2 activity of the enantiomers” value in assay [4] was “more active compound”.

Regarding `CC[C@@H]1C(=O)N(C)c2cnc(-c3cn[nH]c3-c3ccc(F)cc3F)nc2N1C(C)C` [Example 312, (R)-2-(5-(2,4-difluorophenyl)-1H-pyrazol-4-yl)-7-ethyl-8-isopropyl-5-methyl-7,8-dihydropteridin-6(5H)-one], the IC50 in assay [2] (GST-PLK1, 60 min reaction) was below 1 µM; in assay [3] (setting [6]), below 1 µM; in assay [4] (GST-PLK2, 60 min reaction), below 1 µM.

Take `CC[C@@]12CCCN1c1nc(-n3ncnc3-c3cccc4ncccc34)ncc1N(C)C2=O` [Example 219, (S)-6a-ethyl-5-methyl-2-(5-(quinolin-5-yl)-1H-1,2,4-triazol-1-yl)-6a,7,8,9-tetrahydropyrrolo[2,1-h]pteridin-6(5H)-one]: the IC50 in assay [2] (GST-PLK1, 60 min reaction) was 10 to 50 µM; in assay [3] (setting [6]), above 50 µM; in assay [4] (GST-PLK2, 60 min reaction) it was 1 to 10 µM.

Take `CC[C@@H]1C(=O)N(C)c2cnc(-n3ccnc3C3=CCCC3)nc2N1C1CCCC1` [Example 231, (R)-2-(2-cyclopentenyl-1H-imidazol-1-yl)-8-cyclopentyl-7-ethyl-5-methyl-7,8-dihydropteridin-6(5H)-one]: the IC50 was 1 to 10 µM in assay [2] (GST-PLK1, 60 min reaction); 1 to 10 µM in assay [3] (setting [6]); below 1 µM in assay [4] (GST-PLK2, 60 min reaction).

For `CC[C@]12CCCCN1c1nc(-n3ccnc3-c3ccccc3)ncc1N(C)C2=O` [Example 263, (R)-6a-ethyl-5-methyl-2-(2-phenyl-1H-imidazol-1-yl)-7,8,9,10-tetrahydro-5H-pyrido[2,1-h]pteridin-6(6aH)-one], the IC50 in assay [2] (GST-PLK1, 60 min reaction) was above 50 µM; in assay [3] (setting [6]) it was above 50 µM; in assay [4] (GST-PLK2, 60 min reaction), 10 to 50 µM.

As to `CC[C@@]12CCCN1c1nc(-c3cn[nH]c3-c3ccccc3)ncc1N(C)C2=O` [Example 305, (S)-6a-ethyl-5-methyl-2-(5-phenyl-1H-pyrazol-4-yl)-6a,7,8,9-tetrahydropyrrolo[2,1-h]pteridin-6(5H)-one], the IC50 in assay [2] (GST-PLK1, 60 min reaction) was 1 to 10 µM; in assay [3] (setting [6]), 10 to 50 µM; in assay [4] (GST-PLK2, 60 min reaction), below 1 µM.

With `CC[C@@H]1C(=O)N(C)c2cnc(-c3sc(N)nc3-c3ccn[nH]3)nc2N1C(C)C` [Example 337, (R)-2-(2-amino-4-(1H-pyrazol-5-yl)thiazol-5-yl)-7-ethyl-8-isopropyl-5-methyl-7,8-dihydropteridin-6(5H)-one], the IC50 was 1 to 10 µM in assay [2] (GST-PLK1, 60 min reaction); 1 to 10 µM in assay [3] (setting [6]); below 1 µM in assay [4] (GST-PLK2, 60 min reaction).
